Measurements published in patent publication US11377473B2, “Albumin-binding prodrugs of auristatin E derivatives” (priority 2017, dated 2022).
pIC50: −log10 of the molar value.

Tested on: panel of 6 selected human cancer cell lines (LXFL 1674L, SW-620, CAL-27, RKO, MDA-MB-468, SK-OV-3)
Assay: IC50 determination in a panel of tumor cell lines (CellTiter-Blue Cell Viability assay)
Assay type: cell-based
Conditions: geometric mean over six cell lines, 96 h treatment; read-out: Geometric mean IC50
Protocol: Samples were provided to Charles River Discovery Research Services Germany GmbH as frozen stock solutions in pharmaceutical grade DMSO (Sigma-Aldrich, Taufkirchen, Germany). On each day of the experiment, a frozen aliquot of stock solution was thawed. Subsequent serial dilutions were realized with complete RPMI 1640 cell culture medium using an intermediate dilution plate. 10 μL taken from the intermediate dilution plate were then transferred to 140 μL/well of the cell culture plate. Cells were treated with the test compounds at 10 concentrations in triplicate in half-log steps from 0.003 nM to 100 nM for a period of 96 h.
The compounds were tested in a panel of 6 selected human cancer cell lines by using CellTiter-Blue® Cell Viability assay (Promega, Mannheim, Germany). IC values are reported as absolute IC50 values, obtained for a test compound as the geometric mean of IC50 values over all cell lines tested.
The cell lines used were LXFL 1674L (established from patient-derived xenograft at Charles River Discovery Research Services Germany GmbH), SW-620 (kindly provided by the NCI, Bethesda, Md., USA), CAL-27 (purchased from DSMZ, Deutsche Sammlung von Mikroorganismen und Zellkulturen, Braunschweig, Germany), RKO, MDA-MB-468, and SK-OV-3 (from ATCC, American Type Culture Collection, Rockville, Md., USA). Authenticity of all cell lines was proven at the DSMZ by STR (short tandem repeat) analysis, a PCR based DNA-fingerprinting methodology. Cell lines were routinely passaged once or twice weekly and maintained in culture for up to 20 passages. Cells were grown at 37° C. in a humidified atmosphere with 5% CO2 in RPMI 1640 medium (25 mM HEPES, with L-glutamine, Biochrom, Berlin, Germany) supplemented with 10% (v/v) fetal calf serum (Sigma-Aldrich, Taufkirchen, Germany) and 0.1 mg/mL gentamicin (Life Technologies, Karlsruhe, Germany). The CellTiter-Blue® Cell Viability Assay was used according to manufacturer's instructions. Briefly, cells were harvested from exponential phase cultures, counted and plated in 96-well flat-bottom microtiter plates at a cell density of 4,000-10,000 cells/well depending on the cell line's growth rate. After a 24 h recovery period to allow the cells to resume exponential growth, 10 μL of culture medium (six control wells/plate) or of culture medium with test compound were added. The compounds were applied at 10 concentrations in triplicate in half-log increments up to 100 nM and cells were treated continuously for 96 h. […] Following an incubation period of up to 4 h, fluorescence (FU) was measured by using the Enspire Multimode Plate Reader (excitation λ=531 nm, emission λ=615 nm). IC50 values were determined with GraphPad Prism bioanalytic software (San Diego, Calif., USA).

SMILES: CC[C@H](C)[C@@H]([C@@H](CC(=O)N1CCC[C@H]1[C@H](OC)[C@@H](C)C(=O)N[C@H](C)[C@@H](O)c1ccccc1)OC)N(C)C(=O)[C@@H](NC(=O)[C@H](C(C)C)N(C)C)C(C)C [auristatin E]
- pIC50: 9.89
